PMC5065099 (Chemical biology & drug design, 2016)
Where two headings read alike, the source gives them in different places.

How the values were obtained:
AQP1 [1] = conditions: Xenopus oocytes; cited from earlier work
AQP1 [2] = biological target: T1, AQP1 (Homo sapiens, UniProt P29972); assay type: biochemical
T1 sequence (P29972 1-269): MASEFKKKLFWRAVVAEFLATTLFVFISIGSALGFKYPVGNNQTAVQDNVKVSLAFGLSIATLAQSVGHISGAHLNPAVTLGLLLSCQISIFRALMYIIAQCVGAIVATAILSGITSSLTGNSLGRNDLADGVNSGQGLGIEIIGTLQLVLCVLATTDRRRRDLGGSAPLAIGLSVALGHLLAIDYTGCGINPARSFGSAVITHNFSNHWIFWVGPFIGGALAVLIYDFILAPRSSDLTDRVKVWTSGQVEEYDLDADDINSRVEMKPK

Row | SMILES | inhibition of AQP1 water transport (AQP1 [1]) | reduction in water transport (inhibitory action) (AQP1 [2]) | reduction in water transport (inhibitory action) (AQP1 [2]; hypotonic shock, compounds at final 75 μM, HgCl2 50 μM)
1 | CC[N+](CC)(CC)CC [TEA, tetraethylammonium] | no inhibition | ineffective | 
2 | [Cl][Hg][Cl] [HgCl2, mercuric chloride] |  |  | highly sensitive
3 | CC(=O)Nc1nnc(S(N)(=O)=O)s1 [acetazolamide] | no inhibition |  | 
